These results are taken from patent publication US20170027172A1, “USE OF SUBSTITUTE OXO TETRAHYDROQUINOLINE SULFONAMIDES OR SALTS THEREOF FOR RAISING STRESS TOLERANCE OF PLANTS” (BAYER CROPSCIENCE AKTIENGESELLSCHAFT, priority 2014, published 2017).

For this experiment, the target named is T1, phosphatase ABI1 via the co-regulator RCAR11/PYR1 (Arabidopsis thaliana, UniProt O49686+P49597).
T1 sequence (O49686 1-191): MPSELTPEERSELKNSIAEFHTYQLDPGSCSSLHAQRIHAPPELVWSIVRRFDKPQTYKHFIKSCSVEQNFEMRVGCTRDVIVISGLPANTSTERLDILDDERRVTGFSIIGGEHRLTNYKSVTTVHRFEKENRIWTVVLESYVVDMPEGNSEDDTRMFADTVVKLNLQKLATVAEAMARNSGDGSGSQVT
T1 sequence (P49597 1-434): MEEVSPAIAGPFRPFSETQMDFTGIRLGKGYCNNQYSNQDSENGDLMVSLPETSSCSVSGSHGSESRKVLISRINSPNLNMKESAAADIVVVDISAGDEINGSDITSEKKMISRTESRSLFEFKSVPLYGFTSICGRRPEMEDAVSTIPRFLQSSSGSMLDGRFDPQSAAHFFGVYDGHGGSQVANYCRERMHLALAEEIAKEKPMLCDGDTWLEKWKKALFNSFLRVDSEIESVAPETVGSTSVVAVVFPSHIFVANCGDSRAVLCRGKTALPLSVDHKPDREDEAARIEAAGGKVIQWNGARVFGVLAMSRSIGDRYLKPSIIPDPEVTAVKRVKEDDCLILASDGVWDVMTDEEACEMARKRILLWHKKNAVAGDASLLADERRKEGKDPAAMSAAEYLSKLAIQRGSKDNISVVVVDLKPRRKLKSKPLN
Put plainly: In vitro inhibition of the phosphatase ABI1 via the co-regulator RCAR11/PYR1, MUP dephosphorylation. To be noted: in a solution of DMSO and water; fluorescence at 460 nm. On the set-up: dose or concentration left out as unconfirmed. It is filed as biochemical. The text has this: Effects of the phytohormone abscisic acid (ABA) on the behavior of plants under abiotic stress and the mechanism of action of ABA are described in the literature (cf. Abrams et al., WO97/23441, Park et al. Science, 2009, 324, 1068; Grill et al. Science, 2009, 324, 1064; Tanokura et al. Biophysics, 2011, 7, 123; Schroeder et al. Plant J. 2010, 61, 290). Therefore, it is possible with the aid of a suitable in vitro test system to derive a correlation between the action of ABA and the stress response of a plant under abiotic stress. In the event of water deficiency (drought stress), plants form the phytohormone abscisic acid (ABA). This binds, along with a co-regulator (Regulatory Component of ABA-Receptor=RCAR according to Grill et al. Science, 2009, 324, 1064 or PYR/PYL according to Cutler et al. Science, 2009, 324, 1068), to a phosphatase (e.g. ABI1, a type 2C protein phosphatase, also abbreviated to PP2C) and inhibits its activity. As a result, a “downstream” kinase (e.g. SnRK2) is no longer dephosphorylated. This kinase, which is thus active, via phosphorylation of transcription factors (e.g. AREB/ABF, cf. Yoshida et al., 2010, 61, 672), switches on a genetic protection program to increase drought stress tolerance. The assay described hereinafter utilizes the inhibition of the phosphatase ABI1 via the co-regulator RCAR11/PYR1 aus Arabidopsis thaliana. For the determination of activity, the dephosphorylation of 4-methylumbelliferyl phosphate (MUP) was measured at 460 nm. The in vitro assay was conducted in Greiner 384-well PS microplates F-well, using two controls: a) 0.5% dimethyl sulfoxide (DMSO) and b) 5 μM abscisic acid (ABA). The assay described here was generally conducted with substance concentrations of the appropriate chemical test substances in a concentration range of 0.1 μM to 100 μM in a solution of DMSO and water. The substance solution thus obtained, if necessary, was stirred with esterase from porcine liver (EC 3.1.1.1) at room temperature for 3 h and centrifuged at 4000 rpm for 30 min. A total volume of 45 μl was introduced into each cavity of the microplate, having the following composition: • 1) 5 μl of substance solution, i.e. a) DMSO 5% or b) abscisic acid solution or c) the corresponding example compound of the general formula (I) dissolved in 5% DMSO. • 2) 20 μl of enzyme buffer mix, composed of a) 40% by vol. of enzyme buffer (10 mL contain equal proportions by volume of 500 mM Tris-HCl pH 8, 500 mM NaCl, 3.33 mM MnCl2, 40 mM dithiothreitol (DTT)), b) 4% by vol. of ABI1 dilution (protein stock solution was diluted so as to give, after addition, a final concentration in the assay of 0.15 μg ABI1/well), c) 4% by vol. of RCAR11 dilution (enzyme stock was diluted so as to give, on addition of the dilution to the enzyme buffer mix, a final concentration in the assay of 0.30 μg enzyme/well), d) 5% by vol. of Tween20 (1%), e) 47% by vol. H2O bi-dist. • 3) 20 μl of substrate mix, composed of a) 10% by vol. of 500 mM Tris-HCl pH8, b) 10% by vol. of 500 mM NaCl, c) 10% by vol. of 3.33 mM MnCl2, d) 5% by vol. of 25 mM MUP, 5% by vol. of Tween20 (1%), 60% by vol. of H2O bi-dist.
Enzyme buffer mix and substrate mix were made up 5 minutes prior to the addition and warmed to a temperature of 35° C. On completion of pipetting of all the solutions and on completion of mixing, the plate was incubated at 35° C. for 20 minutes. Finally, a relative fluorescence measurement was made at 35° C. with a BMG Labtech “POLARstar Optima” microplate reader using a 340/10 nm excitation filter and a 460 nm emission filter. The efficacy of the compounds of the general formula (I) is reported in the table which follows using abscisic acid […] as comparative substance (No. 37) according to the following classification: ++++ (inhibition≧90%), +++ (90%>inhibition≧70%), ++ (70%>inhibition≧50%), + (50%>inhibition≧30%). […]
Consider `Cc1ccc(CS(=O)(=O)Nc2ccc3c(c2)CCC(=O)N3CC(F)(F)F)cc1` [A2-152], for which the ABI1 inhibition entry is given as “++++ (inhibition≧90%)”.
Under `CCc1ccc(CS(=O)(=O)Nc2ccc3c(c2)CCC(=O)N3CC2CCC2)cc1` [A21-325] stands “++++ (inhibition≧90%)”; under `O=C1CCc2c(cc(F)c(NS(=O)(=O)Cc3ccc(F)cc3)c2F)N1CC1CC1` [A29-158], “++ (70%>inhibition≧50%)”; under `COC(=O)CN1C(=O)CCc2cc(NS(=O)(=O)Cc3ccccc3F)ccc21` [A50-161], “+++ (90%>inhibition≧70%)”.
As for `O=C1CCc2cc(NS(=O)(=O)Cc3cccc(C(F)(F)F)c3)ccc2N1CC(F)(F)F` [A2-179], the ABI1 inhibition result was “+++ (90%>inhibition≧70%)”.
With `O=C1CCc2cc(NS(=O)(=O)Cc3ccc(F)cc3)ccc2N1CC1CCC1` [A21-158], the ABI1 inhibition entry was “++++ (inhibition≧90%)”.
Consider `N#Cc1ccc(CS(=O)(=O)Nc2ccc3c(c2)CCC(=O)N3CC2CC2(Cl)Cl)cc1` (stereo not drawn) [A32-181], for which the ABI1 inhibition result is reported as “+++ (90%>inhibition≧70%)”.
The value for `COC(=O)CN1C(=O)CCc2cc(NS(=O)(=O)Cc3ccc(Cl)cc3)ccc21` [A50-165] was “++++ (inhibition≧90%)”; that for `O=C1CCc2cc(NS(=O)(=O)Cc3ccc(C(F)(F)F)cc3)ccc2N1CC1CC1(Cl)Cl` (stereo not drawn) [A32-178, N-[1-(2′,2′-Dichlorocyclopropylmethyl)-2-oxo-1,2,3,4-tetrahydroquinolin-6-yl]-1-(4-trifluoromethylphenyl)methanesulfonamide] was “++ (70%>inhibition≧50%)”.
Turning to `CCOCCN1C(=O)CCc2cc(NS(=O)(=O)Cc3ccc(C)cc3)ccc21` [A39-152], the ABI1 inhibition entry was “++++ (inhibition≧90%)”.
The value for `O=C1CCc2cc(NS(=O)(=O)Cc3ccc(Cl)cc3)ccc2N1CC1CC1(Cl)Cl` (racemic) [A32-165] was “++ (70%>inhibition≧50%)”; that for `COC(=O)CCN1C(=O)CCc2cc(NS(=O)(=O)Cc3cccc(C(F)(F)F)c3)ccc21` [A51-179] was “++ (70%>inhibition≧50%)”.
Under `N#Cc1ccc(CS(=O)(=O)Nc2ccc3c(c2)CCC(=O)N3CC2CCCC2)cc1` [A22-181] stands “+++ (90%>inhibition≧70%)”; under `Cc1cccc(CS(=O)(=O)Nc2ccc3c(c2)CCC(=O)N3CC2CC2)c1` [A19-153, N-[1-(Cyclopropylmethyl)-2-oxo-1,2,3,4-tetrahydroquinolin-6-yl]-1-(3-methylphenyl)methanesulfonamide], “+++ (90%>inhibition≧70%)”; under `O=C1CCc2cc(NS(=O)(=O)Cc3ccc(Cl)cc3)ccc2N1CC1CC1` [A19-165], “++++ (inhibition≧90%)”.
The value for `O=C1CCc2cc(NS(=O)(=O)Cc3cccc(Cl)c3)ccc2N1CC(F)F` [A1-166] was “++ (70%>inhibition≧50%)”; that for `N#Cc1ccc(CS(=O)(=O)Nc2ccc3c(c2)CCC(=O)N3CC2CCC2)cc1` [A21-181, N-[1-(Cyclobutylmethyl)-2-oxo-1,2,3,4-tetrahydroquinolin-6-yl]-1-(4-cyanophenyl)methanesulfonamide] was “++++ (inhibition≧90%)”; that for `O=C1CCc2cc(NS(=O)(=O)Cc3ccc(Cl)cc3)ccc2N1CC(F)(F)F` [A2-165] was “++++ (inhibition≧90%)”.
As for `O=C1CCc2cc(NS(=O)(=O)Cc3cccc(Cl)c3)ccc2N1CC(F)(F)F` [A2-166], the ABI1 inhibition entry is “+++ (90%>inhibition≧70%)”.
Under `CCc1ccc(S(=O)(=O)Nc2ccc3c(c2)CCC(=O)N3CC2CC2)cc1` [A19-601] stands “+++ (90%>inhibition≧70%)”; under `Cc1ccc(CS(=O)(=O)Nc2ccc3c(c2)CCC(=O)N3CC(F)F)cc1` [A1-152], “++++ (inhibition≧90%)”; under `O=C1CCc2cc(NS(=O)(=O)Cc3ccc(Cl)cc3)ccc2N1CC(F)(F)C(F)(F)F` [A10-165], “++++ (inhibition≧90%)”.
On to `CC1(C)CC(=O)N(CC#N)c2ccc(NS(=O)(=O)Cc3ccc(Cl)cc3)cc21` [B16-165], for which the ABI1 inhibition entry is “+++ (90%>inhibition≧70%)”.
The value for `COC(=O)CN1C(=O)CCc2cc(NS(=O)(=O)Cc3cccc(C)c3)ccc21` [A50-153] was “++ (70%>inhibition≧50%)”; that for `Cc1ccc(CS(=O)(=O)Nc2ccc3c(c2)CCC(=O)N3CC#N)cc1` [A16-152] was “++ (70%>inhibition≧50%)”; that for `COC(=O)CCN1C(=O)CCc2cc(NS(=O)(=O)Cc3ccccc3Cl)ccc21` [A51-168] was “++++ (inhibition≧90%)”.
With `CCOCCN1C(=O)CCc2cc(NS(=O)(=O)Cc3ccc(C#N)cc3)ccc21` [A39-181], the ABI1 inhibition result is listed as “+++ (90%>inhibition≧70%)”.
On to `COCCN1C(=O)CCc2cc(NS(=O)(=O)Cc3ccc(C)cc3)ccc21` [A38-152, N-[1-(Methoxyethyl)-2-oxo-1,2,3,4-tetrahydroquinolin-6-yl]-1-(4-methylphenyl)methanesulfonamide], for which the ABI1 inhibition result is given as “++++ (inhibition≧90%)”.
Under `N#Cc1ccc(CS(=O)(=O)Nc2ccc3c(c2)CCC(=O)N3CC(F)(F)C(F)(F)F)cc1` [A10-181] stands “++++ (inhibition≧90%)”; under `O=C1CCc2cc(NS(=O)(=O)Cc3cccc([N+](=O)[O-])c3)ccc2N1CC(F)(F)F` [A2-176], “+++ (90%>inhibition≧70%)”.
On to `N#CCN1C(=O)CCc2cc(NS(=O)(=O)Cc3ccc(C(F)(F)F)cc3)ccc21` [A16-178], for which the ABI1 inhibition entry is on record as “++ (70%>inhibition≧50%)”.
Consider `COCN1C(=O)CCc2cc(NS(=O)(=O)Cc3ccc(Cl)cc3)ccc21` [A49-165], for which the ABI1 inhibition entry is listed as “++++ (inhibition≧90%)”.
Under `COC(=O)CN1C(=O)CCc2cc(NS(=O)(=O)Cc3ccccc3)ccc21` [A50-151] stands “++ (70%>inhibition≧50%)”; under `CC(C)(C)c1ccc(CS(=O)(=O)Nc2ccc3c(c2)CCC(=O)N3CC2CC2)cc1` [A19-332], “++++ (inhibition≧90%)”.
On to `COC(=O)CCN1C(=O)CCc2cc(NS(=O)(=O)Cc3ccccc3)ccc21` [A51-151], for which the ABI1 inhibition entry was “+++ (90%>inhibition≧70%)”.
On to `CC1=CC(=O)CC(C)(C)[C@@]1(O)/C=C/C(C)=C\C(=O)O` [abscisic acid, reference compound], for which the ABI1 inhibition entry is “++++ (inhibition≧90%)”.
